Assay results: the supplement of paper PMC11451515

Test system: P12-Ichikawa
Experiment: cell viability relative to DMSO control; higher = less cytotoxic
Conditions: 48 h
Summary of the method: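 Viability, reported as a per-plate percentage of DMSO wells with cell-free wells as background, came from CellTiter-Glo One luminescence. Reading took place after 48 h at 37°C. Before that, NOMO1 or SEM (500 cells/well) or P12-Ichikawa (1000 cells/well) leukemia cells, adapted for at least four passages in each medium, were seeded in 1536-well plates (5 μl) and pin-dosed with library compounds in DMSO, 47 μM to 0.79 nM over 11 threefold points.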

[1] = HPLM + 10% dialyzed FBS, 0.000781 µM
[2] = HPLM + 10% dialyzed FBS, 0.00234 µM
[3] = HPLM + 10% dialyzed FBS, 0.00702 µM
[4] = HPLM + 10% dialyzed FBS, 0.0211 µM
[5] = HPLM + 10% dialyzed FBS, 0.0632 µM
[6] = HPLM + 10% dialyzed FBS, 0.19 µM
[7] = HPLM + 10% dialyzed FBS, 0.569 µM
[8] = HPLM + 10% dialyzed FBS, 1.71 µM
[9] = HPLM + 10% dialyzed FBS, 5.12 µM
[10] = HPLM + 10% dialyzed FBS, 15.4 µM
[11] = HPLM + 10% dialyzed FBS, 46.1 µM
[12] = RPMI 5 mM glucose + 10% FBS, 0.000781 µM
[13] = RPMI 5 mM glucose + 10% FBS, 0.00234 µM
[14] = RPMI 5 mM glucose + 10% FBS, 0.00702 µM
[15] = RPMI 5 mM glucose + 10% FBS, 0.0211 µM
[16] = RPMI 5 mM glucose + 10% FBS, 0.0632 µM
[17] = RPMI 5 mM glucose + 10% FBS, 0.19 µM
[18] = RPMI 5 mM glucose + 10% FBS, 0.569 µM
[19] = RPMI 5 mM glucose + 10% FBS, 1.71 µM
[20] = RPMI 5 mM glucose + 10% FBS, 5.12 µM
[21] = RPMI 5 mM glucose + 10% FBS, 15.4 µM
[22] = RPMI 5 mM glucose + 10% FBS, 46.1 µM
[23] = RPMI 5 mM glucose + 10% dialyzed FBS, 0.000781 µM
[24] = RPMI 5 mM glucose + 10% dialyzed FBS, 0.00234 µM
[25] = RPMI 5 mM glucose + 10% dialyzed FBS, 0.00702 µM
[26] = RPMI 5 mM glucose + 10% dialyzed FBS, 0.0211 µM
[27] = RPMI 5 mM glucose + 10% dialyzed FBS, 0.0632 µM
[28] = RPMI 5 mM glucose + 10% dialyzed FBS, 0.19 µM
[29] = RPMI 5 mM glucose + 10% dialyzed FBS, 0.569 µM
[30] = RPMI 5 mM glucose + 10% dialyzed FBS, 1.71 µM
[31] = RPMI 5 mM glucose + 10% dialyzed FBS, 5.12 µM
[32] = RPMI 5 mM glucose + 10% dialyzed FBS, 15.4 µM
[33] = RPMI 5 mM glucose + 10% dialyzed FBS, 46.1 µM

| SMILES | cell viability [1] | cell viability [2] | cell viability [3] | cell viability [4] | cell viability [5] | cell viability [6] | cell viability [7] | cell viability [8] | cell viability [9] | cell viability [10] | cell viability [11] | cell viability [12] | cell viability [13] | cell viability [14] | cell viability [15] | cell viability [16] | cell viability [17] | cell viability [18] | cell viability [19] | cell viability [20] | cell viability [21] | cell viability [22] | cell viability [23] | cell viability [24] | cell viability [25] | cell viability [26] | cell viability [27] | cell viability [28] | cell viability [29] | cell viability [30] | cell viability [31] | cell viability [32] | cell viability [33] |
| --- | --- | --- | --- | --- | --- | --- | --- | --- | --- | --- | --- | --- | --- | --- | --- | --- | --- | --- | --- | --- | --- | --- | --- | --- | --- | --- | --- | --- | --- | --- | --- | --- | --- |
| CC(=O)OCC(=O)[C@@]12\N=C(C)/O[C@@H]1C[C@H]3[C@@H]4CCC/5=C/C(=O)/C=C\[C@]5(C)[C@H]4[C@@H](O)C[C@]23C | 103% | 111% | 108% | 113% | 103% | 114% | 108% | 105% | 80.6% | 73% | 63.9% | 102% | 123% | 116% | 114% | 85.1% | 115% | 115% | 94.1% | 85.5% | 62.8% | 55% | 93.6% | 102% | 112% | 107% | 104% | 111% | 102% | 86.9% | 67.2% | 57.7% | 49.4% |
| Cc1cccc(C)c1OCC(=O)N[C@@H](Cc1ccccc1)[C@@H](O)C[C@H](Cc1ccccc1)NC(=O)[C@H](C(C)C)N1CCCNC1=O | 99.5% | 96.1% | 98.2% | 102% | 95.7% | 97% | 91.9% | 89.1% | 90.2% | 86.2% | 61.8% | 98.5% | 101% | 93.9% | 96% | 102% | 99.6% | 97.4% | 91.7% | 91.3% | 87.1% | 56.8% | 91.6% | 87.8% | 94.1% | 88.7% | 91.2% | 90.1% | 93.6% | 79.2% | 85.6% | 83.9% | 54.8% |
| CCNC(=O)c1cc2c(-c3cc(OCCN4CCCC4)c(Cl)cc3Cl)nc(N)nc2s1 | 98.3% | 103% | 109% | 108% | 102% | 101% | 108% | 92.8% | 62.9% | 53.6% | 44.9% | 102% | 91.9% | 106% | 97% | 98.4% | 95.8% | 97.2% | 77.6% | 47.1% | 34% | 35.5% | 102% | 96.5% | 101% | 94.7% | 96% | 97.6% | 90.5% | 73.4% | 42% | 36.5% | 31.5% |
| COc1cc(Nc2ncc(F)c(Nc3ccc4c(n3)NC(=O)C(C)(C)O4)n2)cc(OC)c1OC | 107% | 112% | 120% | 114% | 122% | 118% | 129% | 101% | 44.8% | 4.38% | 4.34% | 114% | 107% | 126% | 112% | 119% | 126% | 113% | 114% | 62.3% | 5.34% | 5.36% | 110% | 122% | 113% | 122% | 121% | 121% | 137% | 112% | 62.4% | 5.87% | 5.61% |
| OC(=O)\C1=C\N(C2=CC=C(F)C=C2)C3=C(C=C(F)C(=C3)N4CCNCC4)C1=O | 121% | 116% | 112% | 124% | 124% | 117% | 114% | 115% | 108% | 103% | 91% | 126% | 118% | 118% | 120% | 117% | 113% | 112% | 121% | 117% | 99.1% | 92.1% | 119% | 111% | 115% | 115% | 104% | 114% | 111% | 102% | 108% | 91.5% | 87.2% |
| C[C@H]1C[C@H]2[C@@H]3CCC4=CC(=O)C=C[C@]4(C)[C@@]3(F)[C@@H](O)C[C@]2(C)[C@@]1(O)C(=O)CO | 114% | 119% | 118% | 109% | 98.1% | 78.3% | 73.9% | 71.9% | 71% | 65.5% | 65.8% | 121% | 126% | 116% | 108% | 99.8% | 73.1% | 65.1% | 60.1% | 51.7% | 55.6% | 43.5% | 110% | 119% | 116% | 101% | 81.1% | 59.9% | 56% | 48.2% | 46% | 41.5% | 42.5% |
| OC[C@H](Cc1ccccc1)Nc1nc(Oc2ccc3c(c2)CCC3)nc2c1ncn2Cc1ccc(-c2ccccc2)cc1 | 93% | 94.1% | 98.7% | 102% | 96.4% | 99.1% | 105% | 94.3% | 95.4% | 82.7% | 79.2% | 90.8% | 93.3% | 89% | 90.5% | 94.7% | 89.5% | 91% | 97.3% | 90.1% | 86% | 75.1% | 79.6% | 88.4% | 90.9% | 99% | 99.8% | 89.3% | 90.8% | 87.7% | 88.9% | 72.4% | 68.4% |
